Measured values taken from ChEMBL document CHEMBL5614413, “Design, synthesis and biological evaluation of amphiphilic benzopyran derivatives as potent antibacterial agents against multidrug-resistant bacteria” (Eur J Med Chem, 2024).
Converted amounts (≈) assume the structure as drawn.

What was measured:
[1] = system: Klebsiella pneumoniae; experiment: Antibacterial activity against Klebsiella pneumoniae ATCC 10031; format: functional
[2] = system: Staphylococcus aureus; experiment: Antibacterial activity against penicillin-resistant Staphylococcus aureus ATCC 31007; format: functional
[3] = system: Pseudomonas aeruginosa; experiment: Antibacterial activity against penicillin-susceptible Pseudomonas aeruginosa ATCC 27853; format: functional
[4] = system: Staphylococcus aureus; experiment: Antibacterial activity against erythromycin-susceptible Staphylococcus aureus ATCC 25923; format: functional
[5] = system: Acinetobacter baumannii; experiment: Antibacterial activity against Acinetobacter baumannii ATCC 19606; format: functional
[6] = Hemolytic activity in sheep RBC; format: toxicity, cell-based, Ovis aries, Erythrocyte; settings: sheep red blood cells (erythrocytes)
[7] = system: Bacillus subtilis; experiment: Antibacterial activity against penicillin-susceptible Bacillus subtilis ATCC 9372; format: functional
[8] = system: Staphylococcus aureus; experiment: Antibacterial activity against methicillin-resistant Staphylococcus aureus ATCC 43300; format: functional
[9] = system: Escherichia coli; experiment: Antibacterial activity against penicillin-susceptible Escherichia coli ATCC 25922; format: functional
[10] = Selectivity index, ratio of HC50 for hemolytic activity in sheep RBC to MIC for antibacterial activity against methicillin-resistant Staphylococcus aureus ATCC 43300; format: toxicity; settings: sheep red blood cells (erythrocytes), read-out: Selectivity Index
[11] = system: Enterococcus faecalis; experiment: Antibacterial activity against vancomycin-susceptible Enterococcus faecalis ATCC 29212; format: functional
[12] = system: Staphylococcus epidermidis; experiment: Antibacterial activity erythromycin-susceptible Staphylococcus epidermidis ATCC 12228; format: functional

| Molecule | MIC [1] [µg/mL] | MIC [2] [µg/mL] | MIC [3] [µg/mL] | MIC [4] [µg/mL] | MIC [5] [µg/mL] | HC50 [6] [µg/mL] | MIC [7] [µg/mL] | MIC [8] [µg/mL] | MIC [9] [µg/mL] | selectivity ratio [10] | MIC [11] [µg/mL] | MIC [12] [µg/mL] |
| --- | --- | --- | --- | --- | --- | --- | --- | --- | --- | --- | --- | --- |
| CC(=O)c1c(OCCCN2CCOCC2)c2c(c3c1OC(C)(CCC=C(C)C)C=C3)OC(C)(CCC=C(C)C)C=C2 (stereo unspecified) | > 128 | > 128 | > 128 | > 128 | > 128 | > 128 | > 128 | > 128 | > 128 | < 10 | > 128 | > 128 |
| CC(=O)c1ccc2c(c1OCCCN(CCCN(C)C)CCCN(C)C)C=CC(C)(CCC=C(C)C)O2 (stereo unspecified) | 16 (≈ 31.1 µM) | 64 (≈ 125 µM) | 64 (≈ 125 µM) | 64 (≈ 125 µM) | 16 (≈ 31.1 µM) | 325 | 32 (≈ 62.3 µM) | 32 (≈ 62.3 µM) | 16 (≈ 31.1 µM) | 5.1 | 64 (≈ 125 µM) | 32 (≈ 62.3 µM) |
| CNCCCOc1ccc(/C=C/C(=O)c2ccc3c(c2OC)C=CC(C)(CCC=C(C)C)O3)cc1 (stereo unspecified) | 32 (≈ 67.3 µM) | 8 (≈ 16.8 µM) | > 128 | 8 (≈ 16.8 µM) | > 128 | 90.5 | 4 (≈ 8.41 µM) | 16 (≈ 33.6 µM) | > 128 | 5.6 | 4 (≈ 8.41 µM) | 1 (≈ 2.1 µM) |
| CC(=O)c1ccc2c(c1OCCCN1CCCC1)C=CC(C)(CCC=C(C)C)O2 (stereo unspecified) | 8 (≈ 20.1 µM) | 16 (≈ 40.2 µM) | > 128 | 32 (≈ 80.5 µM) | 32 (≈ 80.5 µM) | 366 | 16 (≈ 40.2 µM) | 16 (≈ 40.2 µM) | > 128 |  | 16 (≈ 40.2 µM) | 8 (≈ 20.1 µM) |
| CCN(CC)CCCNCCCOc1c(C(C)=O)ccc2c1C=CC(C)(CCC=C(C)C)O2 (stereo unspecified) | 8 (≈ 17.5 µM) | 16 (≈ 35 µM) | 16 (≈ 35 µM) | 8 (≈ 17.5 µM) | 8 (≈ 17.5 µM) | 140 | 8 (≈ 17.5 µM) | 8 (≈ 17.5 µM) | 8 (≈ 17.5 µM) | 17.5 | 8 (≈ 17.5 µM) | 8 (≈ 17.5 µM) |
| CC(=O)c1c(OCCCNCCCN2CCCC2)c2c(c3c1OC(C)(CCC=C(C)C)C=C3)OC(C)(CCC=C(C)C)C=C2 (stereo unspecified) | 8 (≈ 13.2 µM) | 4 (≈ 6.61 µM) | 128 (≈ 212 µM) | 4 (≈ 6.61 µM) | 16 (≈ 26.5 µM) | 19.7 | 8 (≈ 13.2 µM) | 4 (≈ 6.61 µM) | 16 (≈ 26.5 µM) | 4.9 | 4 (≈ 6.61 µM) | 4 (≈ 6.61 µM) |
| CC(=O)c1ccc2c(c1OCC(=O)N(CCCN)CCCN)C=CC(C)(CCC=C(C)C)O2.Cl.Cl (stereo unspecified) | > 128 | > 128 | > 128 | > 128 | > 128 | 1670 | 32 | 128 | > 128 | 13 | > 128 | 128 |
| CCCCN(CCCC)CCCNCCCOc1ccc(/C=C/C(=O)c2ccc3c(c2OC)C=CC(C)(CCC=C(C)C)O3)cc1 (stereo unspecified) | 16 (≈ 25.4 µM) | 4 (≈ 6.34 µM) | 128 (≈ 203 µM) | 8 (≈ 12.7 µM) | 8 (≈ 12.7 µM) | 66.9 | 4 (≈ 6.34 µM) | 4 (≈ 6.34 µM) | 4 (≈ 6.34 µM) | 16.7 | 2 (≈ 3.17 µM) | 1 (≈ 1.59 µM) |
| CC(=O)c1c(OCCCN(CCCN(C)C)CCCN(C)C)c2c(c3c1OC(C)(CCC=C(C)C)C=C3)OC(C)(CCC=C(C)C)C=C2 (stereo unspecified) | 8 (≈ 12 µM) | 4 (≈ 6.02 µM) | 128 (≈ 193 µM) | 4 (≈ 6.02 µM) | 8 (≈ 12 µM) | 30.2 | 4 (≈ 6.02 µM) | 2 (≈ 3.01 µM) | 8 (≈ 12 µM) | 15.1 | 4 (≈ 6.02 µM) | 4 (≈ 6.02 µM) |
| CC(=O)c1ccc2c(c1OCC(=O)NCCCN1CCN(C)CC1)C=CC(C)(CCC=C(C)C)O2 (stereo unspecified) | 128 (≈ 265 µM) | 128 (≈ 265 µM) | > 128 | 128 (≈ 265 µM) | 128 (≈ 265 µM) | 220 | > 128 | 128 (≈ 265 µM) | > 128 | 1.7 | 128 (≈ 265 µM) | 128 (≈ 265 µM) |
| CC(=O)c1ccc2c(c1OCCCN1CCSCC1)C=CC(C)(CCC=C(C)C)O2 (stereo unspecified) | > 128 | > 128 | > 128 | > 128 | 128 (≈ 298 µM) | > 1280 | > 128 | > 128 | > 128 | < 10 | > 128 | > 128 |
| CC(=O)c1ccc2c(c1OCCCN(C)C)C=CC(C)(CCC=C(C)C)O2 (stereo unspecified) | 8 (≈ 21.5 µM) | 16 (≈ 43.1 µM) | 64 (≈ 172 µM) | 16 (≈ 43.1 µM) | 16 (≈ 43.1 µM) | 194 | 16 (≈ 43.1 µM) | 16 (≈ 43.1 µM) | 32 (≈ 86.1 µM) | 11.9 | 16 (≈ 43.1 µM) | 8 (≈ 21.5 µM) |
| CC(=O)c1ccc2c(c1OCCCN(C)CCCN(C)C)C=CC(C)(CCC=C(C)C)O2 (stereo unspecified) | 8 (≈ 18.1 µM) | 32 (≈ 72.3 µM) | 32 (≈ 72.3 µM) | 16 (≈ 36.1 µM) | 8 (≈ 18.1 µM) | 160 | 16 (≈ 36.1 µM) | 16 (≈ 36.1 µM) | 8 (≈ 18.1 µM) | 10 | 16 (≈ 36.1 µM) | 16 (≈ 36.1 µM) |
| CCN(CC)C(=O)COc1c(C(C)=O)ccc2c1C=CC(C)(CCC=C(C)C)O2 (stereo unspecified) | > 128 | > 128 | > 128 | > 128 | 128 (≈ 320 µM) | 131 | > 128 | 128 (≈ 320 µM) | > 128 | 1 | > 128 | > 128 |
| COc1c(C(=O)/C=C/c2ccc(OCCCNCCN(C)C)cc2)ccc2c1C=CC(C)(CCC=C(C)C)O2 (stereo unspecified) | 16 (≈ 30 µM) | 4 (≈ 7.51 µM) | 128 (≈ 240 µM) | 8 (≈ 15 µM) | 8 (≈ 15 µM) | 270 | 2 (≈ 3.75 µM) | 4 (≈ 7.51 µM) | 4 (≈ 7.51 µM) | 67.6 | 2 (≈ 3.75 µM) | 2 (≈ 3.75 µM) |
| COLISTIN | 1 | 128 | 0.5 | 128 | 1 |  | 16 | 128 | 0.5 |  | 128 | 64 |
| COc1c(C(=O)/C=C/c2ccc(OCCCN)cc2)ccc2c1C=CC(C)(CCC=C(C)C)O2 (stereo unspecified) | 16 (≈ 34.7 µM) | 16 (≈ 34.7 µM) | 16 (≈ 34.7 µM) | 8 (≈ 17.3 µM) | 16 (≈ 34.7 µM) | 111 | 8 (≈ 17.3 µM) | 8 (≈ 17.3 µM) | 8 (≈ 17.3 µM) | 13.8 | 16 (≈ 34.7 µM) | 8 (≈ 17.3 µM) |
| CC(=O)c1c(OCCCN2CCSCC2)c2c(c3c1OC(C)(CCC=C(C)C)C=C3)OC(C)(CCC=C(C)C)C=C2 (stereo unspecified) | > 128 | > 128 | > 128 | > 128 | > 128 | 844 | > 128 | > 128 | > 128 | < 6.6 | > 128 | > 128 |
| CCCCN(CCCC)CCCNCCCOc1c2c(c3c(c1C(C)=O)OC(C)(CCC=C(C)C)C=C3)OC(C)(CCC=C(C)C)C=C2 (stereo unspecified) | 8 (≈ 12.1 µM) | 2 (≈ 3.02 µM) | 128 (≈ 193 µM) | 1 (≈ 1.51 µM) | 4 (≈ 6.03 µM) | 36.7 | 4 (≈ 6.03 µM) | 4 (≈ 6.03 µM) | 8 (≈ 12.1 µM) | 9.2 | 1 (≈ 1.51 µM) | 1 (≈ 1.51 µM) |
| CC(=O)c1c(OCCCN(C)C)c2c(c3c1OC(C)(CCC=C(C)C)C=C3)OC(C)(CCC=C(C)C)C=C2 (stereo unspecified) | > 128 | 2 (≈ 3.83 µM) | > 128 | 2 (≈ 3.83 µM) | > 128 | 64 | 2 (≈ 3.83 µM) | 4 (≈ 7.67 µM) | > 128 | 16 | 1 (≈ 1.92 µM) | 1 (≈ 1.92 µM) |
| CC(=O)c1ccc2c(c1OCCCN1CCOCC1)C=CC(C)(CCC=C(C)C)O2 (stereo unspecified) | > 128 | > 128 | > 128 | > 128 | 128 (≈ 310 µM) | 560 | 128 (≈ 310 µM) | > 128 | > 128 | < 4.4 | > 128 | > 128 |
| CC(=O)c1ccc2c(c1OCC(=O)NCCCN1CCOCC1)C=CC(C)(CCC=C(C)C)O2 (stereo unspecified) | 128 (≈ 272 µM) | 128 (≈ 272 µM) | > 128 | 128 (≈ 272 µM) | 128 (≈ 272 µM) | 261 | 128 (≈ 272 µM) | 64 (≈ 136 µM) | > 128 | 4.1 | 128 (≈ 272 µM) | 128 (≈ 272 µM) |
| CC(=O)c1c(OCCCNCCN(C)C)c2c(c3c1OC(C)(CCC=C(C)C)C=C3)OC(C)(CCC=C(C)C)C=C2 (stereo unspecified) | 4 (≈ 7.08 µM) | 2 (≈ 3.54 µM) | 32 (≈ 56.7 µM) | 1 (≈ 1.77 µM) | 2 (≈ 3.54 µM) | 45.2 | 2 (≈ 3.54 µM) | 2 (≈ 3.54 µM) | 2 (≈ 3.54 µM) | 22.6 | 1 (≈ 1.77 µM) | 0.5 (≈ 0.885 µM) |
| CCCCN(CCCC)CCCNC(=O)COc1c(C(C)=O)ccc2c1C=CC(C)(CCC=C(C)C)O2 (stereo unspecified) | 128 (≈ 250 µM) | 16 (≈ 31.2 µM) | > 128 | 16 (≈ 31.2 µM) | 128 (≈ 250 µM) | 270 | 4 (≈ 7.8 µM) | 8 (≈ 15.6 µM) | > 128 | 33.8 | 32 (≈ 62.4 µM) | 32 (≈ 62.4 µM) |
| CNCCCOc1c(C(C)=O)ccc2c1C=CC(C)(CCC=C(C)C)O2 (stereo unspecified) | 16 (≈ 44.8 µM) | 8 (≈ 22.4 µM) | 64 (≈ 179 µM) | 8 (≈ 22.4 µM) | 8 (≈ 22.4 µM) | 90.1 | 8 (≈ 22.4 µM) | 16 (≈ 44.8 µM) | 16 (≈ 44.8 µM) |  | 4 (≈ 11.2 µM) | 4 (≈ 11.2 µM) |
